The source of these data is ChEMBL document CHEMBL4725493, “Novel 2-Aryloxazoline Compounds Exhibit an Inhibitory Effect on Candida spp., Including Antifungal-Resistant Isolates” (ACS Med Chem Lett, 2020).

Each structure is given as a SMILES string. In brackets after ≈: the same amount, converted by molar mass. Activity calls are given as the source filed them. No cut-off for these calls is given here.

One series relates to Candida tropicalis. In words: Antifungal activity against Candida tropicalis ATCC 200956 by CLSI standard M27 broth microdilution method. It counts as functional. For orientation: Broth dilution looks for growth in wells or tubes with falling amounts of substance.
In another series the test system is Erythrocyte. The series can be described thus: Hemolytic activity in human RBC by spectrophotometry. It is filed as ADME, cell-based.
For another series, the system named is HepG2. The series can be described thus: Cytotoxicity against human HepG2 cells assessed as reduction in cell viability by XTT assay. It counts as cell-based.
A short description of series [1]: Selectivity index, ratio of HA50 to human RCB to MIC of antifungal activity against Candida tropicalis ATCC 200956. It is filed as toxicity. The settings on record: human red blood cells (RCB).
Series [2] is described as follows: Selectivity index, ratio of CC50 of human HepG2 cells to MIC of antifungal activity against Candida tropicalis ATCC 200956. It counts as toxicity.
The subject of series [3] is [Candida] auris. In words: Antifungal activity against Candida auris CBS 10913 by CLSI standard M27 broth microdilution method. The settings on record: Candidozyma auris. It counts as functional.
In series [4] the test system is [Candida] auris. In words: Antifungal activity against Candida auris CBS 12766 by CLSI standard M27 broth microdilution method. It counts as functional. The following applies: Candidozyma auris.
The test system of another series is Candida duobushaemulonii. The series can be described thus: Antifungal activity against Candida duobushaemulonis CBS 7799 by CLSI standard M27 broth microdilution method. It is filed as functional. The following applies: Candidozyma duobushaemuli.
Series [5] is described as follows: Antifungal activity against Candida pseudohaemulonis CBS 10004 by broth microdilution method. The following applies: Candidozyma pseudohaemuli. It is filed as functional.
For another series, the system named is Aspergillus fumigatus. The series can be described thus: Antifungal activity against Aspergillus fumigatus ATCC 16913 by CLSI standard M38 broth microdilution method. It counts as functional, organism-based.
The next series deals with Aspergillus niger. In words: Antifungal activity against Aspergillus niger by CLSI standard M38 broth microdilution method. It is filed as functional, organism-based.
The test system of a further series is Cryptococcus neoformans. The series can be described thus: Fungicidal activity against Cryptococcus neoformans ATCC 208821 assessed as loss of fungal growth by CLSI method. It is filed as functional, organism-based.
The subject of the next series is Cryptococcus gattii. The series can be described thus: Fungicidal activity against Cryptococcus gattii ATCC 56990 assessed as loss of fungal growth by CLSI method. It counts as functional, organism-based. The following applies: Cryptococcus bacillisporus.

A word on the MIC: it is the lowest concentration that inhibits growth of the organism. A higher MIC goes with weaker potency. One may read the CC50 as the concentration that lowers cell viability or growth by half. As to `C[C@H]1OC(c2ccc(Cl)cc2O)=N[C@H]1C(=O)OCc1ccccc1`, the minimum inhibitory concentration (MIC) was at most 0.03 µg/mL against Candida tropicalis; 0.06 µg/mL (≈ 0.174 µM) in series [Candida] auris [3]; 2 µg/mL (≈ 5.78 µM) in series [Candida] auris [4]; 0.5 µg/mL (≈ 1.45 µM) in the series on Candida duobushaemulonii; 0.25 µg/mL (≈ 0.723 µM) in series [5]. This compound also had an Activity in the series with Erythrocyte above 128 µg/mL. Moreover, the CC50 with HepG2 worked out at 95 µg/mL (≈ 275 µM). Also, the selectivity ratio in [1] was at least 512; in [2], at least 380. Further, the inhibition entry with Aspergillus fumigatus and with Aspergillus niger was “Active” throughout. Besides, the result with Cryptococcus neoformans and in the series on Cryptococcus gattii was Active.
